From patent publication US10780074B2, “Compounds and uses thereof” (Sunovion Pharmaceuticals Inc., priority 2017, dated 2020)
Counter-ions that a name gives are not always drawn. Like-named read-outs stand apart in the source and are kept apart here.

Test system: behaviors of compound-treated mice
Assay: Neuropharmacological Assay (SmartCube)
Type: in vivo
Conditions: for minimal effective dose: Mus musculus, ip, 0.25 h, dose having 50% or more total activity in SmartCube, read-out: MED (minimal effective dose)
How it was run: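 Behavioral signatures were captured automatically by video, and each drug class received a probability for the best of three i.p. doses given 15 min pre-test (vehicle: Pharmasolve/PEG/propylene glycol). Potency is given as MED, the lowest mpk dose (typically 0.3–30) reaching 50% or more total activity.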

[1] = i.p. 15 min before behavioral test, most efficacious dose(s) of 3 doses
[2] = SmartCube, i.p. 15 min before test, most efficacious dose(s)

Row | SMILES | minimal effective dose (i.p.) [mg/kg] | AD: ADHD (probability that activity matches class) [1] | AG: analgesic (probability that activity matches class) [1] | AX: anxiolytic (probability that activity matches class) [1] | CE: cognitive enhancer (probability that activity matches class) [1] | DP: anti-depressant (probability that activity matches class) [1] | MS: mood stabilizer (probability that activity matches class) [1] | PS: anti-psychotic (probability that activity matches class) [1] | SD: sedative hypnotic (probability that activity matches class) [1] | UN: uncharacterized CNS activity (probability that activity matches class) [1] | minimal effective dose [mg/kg] | AD: ADHD (probability that activity matches class) [2] | AG: analgesic (probability that activity matches class) [2] | AX: anxiolytic (probability that activity matches class) [2] | CE: cognitive enhancer (probability that activity matches class) [2] | DP: anti-depressant (probability that activity matches class) [2] | MS: mood stabilizer (probability that activity matches class) [2] | PS: anti-psychotic (probability that activity matches class) [2] | SD: sedative hypnotic (probability that activity matches class) [2] | UN: uncharacterized CNS activity (probability that activity matches class) [2]
1 | CNC[C@H]1OCCc2c(-c3ccncc3)cccc21 [Compound 18, (S)—N-Methyl(5-(pyridin-4-yl)isochroman-1-yl)methanamine dihydrochloride salt] | 10 to 30 | + (LOQ ≤ + <5%) | + (LOQ ≤ + <5%) | + (LOQ ≤ + <5%) | + (LOQ ≤ + <5%) | ++++ (50% ≤ ++++) | + (LOQ ≤ + <5%) | + (LOQ ≤ + <5%) | + (LOQ ≤ + <5%) | + (LOQ ≤ + <5%) |  |  |  |  |  |  |  |  |  | 
2 | CNC[C@H]1OCCc2ccc(-c3cncnc3)cc21 (single isomer, unassigned) [Compound 25, hydrochloride] | 10 to 30 | + (LOQ ≤ + <5%) | ++ (5% ≤ ++ <25%) | ++ (5% ≤ ++ <25%) | +++ (25% ≤ +++ <50%) | ++ (5% ≤ ++ <25%) | ++ (5% ≤ ++ <25%) | ++ (5% ≤ ++ <25%) | ++ (5% ≤ ++ <25%) | + (LOQ ≤ + <5%) |  |  |  |  |  |  |  |  |  | 
3 | Cl.NC[C@@H]1OCCc2c(-c3ncco3)cccc21 [Compound 106, (R)-(5-(Oxazol-2-yl)isochroman-1-yl)methanamine hydrochloride salt] | 10 to 30 | + (LOQ ≤ + <5%) | + (LOQ ≤ + <5%) | +++ (25% ≤ +++ <50%) | ++ (5% ≤ ++ <25%) | ++ (5% ≤ ++ <25%) | + (LOQ ≤ + <5%) | + (LOQ ≤ + <5%) | + (LOQ ≤ + <5%) | + (LOQ ≤ + <5%) |  |  |  |  |  |  |  |  |  | 
4 | NC[C@@H]1OCCCc2c(-c3ccncc3)cccc21 (single isomer, unassigned) [Compound 150] | 10 to 30 | + (LOQ ≤ + <5%) | + (LOQ ≤ + <5%) | ++ (5% ≤ ++ <25%) | + (LOQ ≤ + <5%) | ++ (5% ≤ ++ <25%) | + (LOQ ≤ + <5%) | + (LOQ ≤ + <5%) | + (LOQ ≤ + <5%) | + (LOQ ≤ + <5%) |  |  |  |  |  |  |  |  |  | 
5 | NC[C@@H]1OCCc2c1cccc2-n1ccnc1 [Compound 184, (R)-(5-(1H-Imidazol-1-yl)isochroman-1-yl)methanamine hydrochloride salt] |  |  |  |  |  |  |  |  |  |  | 10 to 30 | + (LOQ ≤ + <5%) | + (LOQ ≤ + <5%) | ++ (5% ≤ ++ <25%) | + (LOQ ≤ + <5%) | + (LOQ ≤ + <5%) | + (LOQ ≤ + <5%) | + (LOQ ≤ + <5%) | + (LOQ ≤ + <5%) | + (LOQ ≤ + <5%)
6 | CNC[C@@H]1OCCc2c(-c3cocn3)cccc21 [Compound 102, (R)—N-methyl-1-(5-(oxazol-4-yl)isochroman-1-yl)methanamine HCl salt] | 10 to 30 | + (LOQ ≤ + <5%) | + (LOQ ≤ + <5%) | ++ (5% ≤ ++ <25%) | + (LOQ ≤ + <5%) | + (LOQ ≤ + <5%) | + (LOQ ≤ + <5%) | + (LOQ ≤ + <5%) | + (LOQ ≤ + <5%) | + (LOQ ≤ + <5%) |  |  |  |  |  |  |  |  |  | 
7 | NC[C@H]1OCCc2c(-c3cncs3)cccc21 (single isomer, unassigned) [Compound 71, hydrochloride salt] | ≤ 3 | +++ (25% ≤ +++ <50%) | + (LOQ ≤ + <5%) | ++ (5% ≤ ++ <25%) | + (LOQ ≤ + <5%) | ++ (5% ≤ ++ <25%) | + (LOQ ≤ + <5%) | + (LOQ ≤ + <5%) | ++ (5% ≤ ++ <25%) | ++++ (50% ≤ ++++) |  |  |  |  |  |  |  |  |  | 
8 | c1cc(-c2ccncc2)c2c(c1)[C@H](CNC1CC1)OCC2 (single isomer, unassigned) [Compound 180, hydrochloride salt] | 3 to 10 | + (LOQ ≤ + <5%) | + (LOQ ≤ + <5%) | ++ (5% ≤ ++ <25%) | + (LOQ ≤ + <5%) | ++ (5% ≤ ++ <25%) | + (LOQ ≤ + <5%) | + (LOQ ≤ + <5%) | + (LOQ ≤ + <5%) | ++++ (50% ≤ ++++) |  |  |  |  |  |  |  |  |  | 
9 | CNC[C@@H]1OCCc2c(-c3cn[nH]c3)cccc21 [Compound 118, (R)-1-(5-(1H-pyrazol-4-yl)isochroman-1-yl)-N-methylmethanamine hydrochloride salt] | 10 to 30 | + (LOQ ≤ + <5%) | ++ (5% ≤ ++ <25%) | ++ (5% ≤ ++ <25%) | + (LOQ ≤ + <5%) | ++ (5% ≤ ++ <25%) | + (LOQ ≤ + <5%) | + (LOQ ≤ + <5%) | +++ (25% ≤ +++ <50%) | ++ (5% ≤ ++ <25%) |  |  |  |  |  |  |  |  |  | 
10 | CNCC1OCCc2c(-c3ccncn3)cccc21 (stereo not shown) [Compound 53, N-Methyl-1-(5-(pyrimidin-4-yl)isochroman-1-yl)methanamine hydrochloride salt] | 3 to 10 | ++ (5% ≤ ++ <25%) | + (LOQ ≤ + <5%) | ++ (5% ≤ ++ <25%) | + (LOQ ≤ + <5%) | ++++ (50% ≤ ++++) | + (LOQ ≤ + <5%) | + (LOQ ≤ + <5%) | + (LOQ ≤ + <5%) | + (LOQ ≤ + <5%) |  |  |  |  |  |  |  |  |  | 
11 | CCNCC1OCCc2c(-c3ccncc3)cccc21 (stereo not shown) [Compound 51, N-((5-(Pyridin-4-yl)isochroman-1-yl)methyl)ethanamine hydrochloride salt] | 3 to 10 | + (LOQ ≤ + <5%) | + (LOQ ≤ + <5%) | + (LOQ ≤ + <5%) | + (LOQ ≤ + <5%) | ++++ (50% ≤ ++++) | + (LOQ ≤ + <5%) | ++ (5% ≤ ++ <25%) | ++ (5% ≤ ++ <25%) | + (LOQ ≤ + <5%) |  |  |  |  |  |  |  |  |  | 
12 | NC[C@H]1OCCc2c1cccc2-n1ccnc1 [Compound 185, (S)-(5-(1H-Imidazol-1-yl)isochroman-1-yl)methanamine hydrochloride salt] |  |  |  |  |  |  |  |  |  |  | 10 to 30 | + (LOQ ≤ + <5%) | + (LOQ ≤ + <5%) | ++ (5% ≤ ++ <25%) | + (LOQ ≤ + <5%) | ++ (5% ≤ ++ <25%) | + (LOQ ≤ + <5%) | + (LOQ ≤ + <5%) | + (LOQ ≤ + <5%) | + (LOQ ≤ + <5%)
13 | NC[C@H]1OCCc2c(-c3ccncn3)cccc21 (single isomer, unassigned) [Compound 75, hydrochloride salt] | 3 to 10 | + (LOQ ≤ + <5%) | + (LOQ ≤ + <5%) | ++ (5% ≤ ++ <25%) | + (LOQ ≤ + <5%) | ++++ (50% ≤ ++++) | + (LOQ ≤ + <5%) | + (LOQ ≤ + <5%) | + (LOQ ≤ + <5%) | ++ (5% ≤ ++ <25%) |  |  |  |  |  |  |  |  |  | 
